Source: PubChem BioAssay (NCI)
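Briefly, cells in 96-well plates were exposed to five compound concentrations for 48 h, and endpoints were estimated by linear interpolation. Here, GI50 denotes the concentration required for 50% inhibition of growth. The concentration for full growth arrest is given as TGI.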

Assays:
Assay in all cases: growth of human tumour cells (NCI), 48 h
SNB-75 CNS = test system: SNB-75 CNS
A549 NSCLC = test system: A549 NSCLC
SNB-19 CNS = test system: SNB-19 CNS
U251 CNS = test system: U251 CNS
HCT-15 colon = test system: HCT-15 colon
EKVX NSCLC = test system: EKVX NSCLC
NCI/ADR-RES ovarian = test system: NCI/ADR-RES ovarian
SF-539 CNS = test system: SF-539 CNS
NCI-H226 lung = test system: NCI-H226 lung
NCI-H460 lung = test system: NCI-H460 lung
OVCAR-5 ovarian = test system: OVCAR-5 ovarian
SK-MEL-2 melanoma = test system: SK-MEL-2 melanoma
NCI-H522 lung = test system: NCI-H522 lung
BT-549 breast = test system: BT-549 breast
HCT-116 colon = test system: HCT-116 colon
UACC-257 melanoma = test system: UACC-257 melanoma
MCF7 breast = test system: MCF7 breast
DU-145 prostate = test system: DU-145 prostate
M14 melanoma = test system: M14 melanoma
OVCAR-3 ovarian = test system: OVCAR-3 ovarian
TK-10 renal = test system: TK-10 renal
HT29 colon = test system: HT29 colon
OVCAR-4 ovarian = test system: OVCAR-4 ovarian
T-47D breast = test system: T-47D breast
SK-MEL-5 melanoma = test system: SK-MEL-5 melanoma
UO-31 renal = test system: UO-31 renal
HCC-2998 colon = test system: HCC-2998 colon
SF-268 CNS = test system: SF-268 CNS
KM12 colon = test system: KM12 colon
HS 578T breast = test system: HS 578T breast
IGROV1 ovarian = test system: IGROV1 ovarian
RPMI-8226 leukemia = test system: RPMI-8226 leukemia
SF-295 CNS = test system: SF-295 CNS
MDA-MB-435 = test system: MDA-MB-435
LOX IMVI melanoma = test system: LOX IMVI melanoma
K-562 leukemia = test system: K-562 leukemia
COLO 205 colon = test system: COLO 205 colon
NCI-H23 lung = test system: NCI-H23 lung
UACC-62 melanoma = test system: UACC-62 melanoma
HOP-62 NSCLC = test system: HOP-62 NSCLC
SK-MEL-28 melanoma = test system: SK-MEL-28 melanoma
PC-3 prostate = test system: PC-3 prostate
SK-OV-3 ovarian = test system: SK-OV-3 ovarian
SW-620 colon = test system: SW-620 colon
OVCAR-8 ovarian = test system: OVCAR-8 ovarian
MALME-3M melanoma = test system: MALME-3M melanoma
ACHN renal = test system: ACHN renal
MOLT-4 leukemia = test system: MOLT-4 leukemia
CAKI-1 renal = test system: CAKI-1 renal
CCRF-CEM leukemia = test system: CCRF-CEM leukemia
A498 renal = test system: A498 renal
SN12C renal = test system: SN12C renal
HL-60(TB) leukemia = test system: HL-60(TB) leukemia
MDA-MB-231 breast = test system: MDA-MB-231 breast
RXF 393 renal = test system: RXF 393 renal
786-0 renal = test system: 786-0 renal
HOP-92 NSCLC = test system: HOP-92 NSCLC

COc1cc(S(=O)(=O)Nc2ccc(C3=NNC(c4ccccc4)C3)cc2)ccc1F (configuration not stated)
GI50 (SNB-75 CNS): 23.9 µM | TGI (SNB-75 CNS): > 100 µM | GI50 (A549 NSCLC): 53.9 µM | TGI (A549 NSCLC): > 100 µM | GI50 (SNB-19 CNS): > 100 µM | TGI (SNB-19 CNS): > 100 µM | GI50 (U251 CNS): 43.5 µM | TGI (U251 CNS): > 100 µM | GI50 (HCT-15 colon): 49 µM | TGI (HCT-15 colon): > 100 µM | GI50 (EKVX NSCLC): 17.8 µM | TGI (EKVX NSCLC): > 100 µM | GI50 (NCI/ADR-RES ovarian): 36.3 µM | TGI (NCI/ADR-RES ovarian): > 100 µM | GI50 (SF-539 CNS): 40 µM | TGI (SF-539 CNS): > 100 µM | GI50 (NCI-H226 lung): 21.2 µM | TGI (NCI-H226 lung): 61.3 µM | GI50 (NCI-H460 lung): 32.3 µM | TGI (NCI-H460 lung): > 100 µM | GI50 (OVCAR-5 ovarian): 66.8 µM | TGI (OVCAR-5 ovarian): > 100 µM | GI50 (SK-MEL-2 melanoma): > 100 µM | TGI (SK-MEL-2 melanoma): > 100 µM | GI50 (NCI-H522 lung): 38 µM | TGI (NCI-H522 lung): > 100 µM | GI50 (BT-549 breast): > 100 µM | TGI (BT-549 breast): > 100 µM | GI50 (HCT-116 colon): 17.3 µM | TGI (HCT-116 colon): > 100 µM | GI50 (UACC-257 melanoma): 29.3 µM | TGI (UACC-257 melanoma): > 100 µM | GI50 (MCF7 breast): 22.2 µM | TGI (MCF7 breast): > 100 µM | GI50 (DU-145 prostate): 76.1 µM | TGI (DU-145 prostate): > 100 µM | GI50 (M14 melanoma): 27.6 µM | TGI (M14 melanoma): > 100 µM | GI50 (OVCAR-3 ovarian): 50.3 µM | TGI (OVCAR-3 ovarian): > 100 µM | GI50 (TK-10 renal): 13.9 µM | TGI (TK-10 renal): 54.7 µM | GI50 (HT29 colon): 59.1 µM | TGI (HT29 colon): > 100 µM | GI50 (OVCAR-4 ovarian): 50.6 µM | TGI (OVCAR-4 ovarian): > 100 µM | GI50 (T-47D breast): 54.2 µM | TGI (T-47D breast): > 100 µM | GI50 (SK-MEL-5 melanoma): 13.9 µM | TGI (SK-MEL-5 melanoma): 31.6 µM | GI50 (UO-31 renal): > 100 µM | TGI (UO-31 renal): > 100 µM | GI50 (HCC-2998 colon): 54.4 µM | TGI (HCC-2998 colon): > 100 µM | GI50 (SF-268 CNS): 65.1 µM | TGI (SF-268 CNS): > 100 µM | GI50 (KM12 colon): 18 µM | TGI (KM12 colon): > 100 µM | GI50 (HS 578T breast): 16.7 µM | TGI (HS 578T breast): 77.8 µM | GI50 (IGROV1 ovarian): 93.8 µM | TGI (IGROV1 ovarian): > 100 µM | GI50 (RPMI-8226 leukemia): 21.6 µM | TGI (RPMI-8226 leukemia): 73.1 µM | GI50 (SF-295 CNS): 28.5 µM | TGI (SF-295 CNS): > 100 µM | GI50 (MDA-MB-435): 47.2 µM | TGI (MDA-MB-435): > 100 µM | GI50 (LOX IMVI melanoma): 73.5 µM | TGI (LOX IMVI melanoma): > 100 µM | GI50 (K-562 leukemia): 28.3 µM | TGI (K-562 leukemia): > 100 µM | GI50 (COLO 205 colon): 51.4 µM | TGI (COLO 205 colon): > 100 µM | GI50 (NCI-H23 lung): 34.6 µM | TGI (NCI-H23 lung): > 100 µM | TGI (UACC-62 melanoma): 45.2 µM | GI50 (HOP-62 NSCLC): 22.7 µM | TGI (HOP-62 NSCLC): 80.4 µM | GI50 (SK-MEL-28 melanoma): > 100 µM | TGI (SK-MEL-28 melanoma): > 100 µM | GI50 (PC-3 prostate): 29.8 µM | TGI (PC-3 prostate): > 100 µM | GI50 (SK-OV-3 ovarian): > 100 µM | TGI (SK-OV-3 ovarian): > 100 µM | GI50 (SW-620 colon): 44.4 µM | TGI (SW-620 colon): > 100 µM | GI50 (OVCAR-8 ovarian): 68.1 µM | TGI (OVCAR-8 ovarian): > 100 µM | GI50 (MALME-3M melanoma): 13.2 µM | TGI (MALME-3M melanoma): 49.8 µM | GI50 (ACHN renal): 35.2 µM | TGI (ACHN renal): > 100 µM | GI50 (MOLT-4 leukemia): 48.3 µM | TGI (MOLT-4 leukemia): > 100 µM | GI50 (CAKI-1 renal): 37.3 µM | TGI (CAKI-1 renal): > 100 µM

Nc1ccc2[nH]c(C(=O)N3CC(CCl)c4c3cc(N)c3ccccc43)cc2c1 (configuration not stated)
TGI (SNB-19 CNS): < 0.0489 µM | TGI (U251 CNS): 0.147 µM | TGI (HCT-15 colon): 1.28 µM | TGI (EKVX NSCLC): 0.0313 µM | TGI (NCI/ADR-RES ovarian): < 0.01 µM | TGI (NCI-H226 lung): < 0.01 µM | TGI (NCI-H460 lung): < 0.01 µM | TGI (OVCAR-5 ovarian): > 100 µM | TGI (CCRF-CEM leukemia): > 100 µM | TGI (BT-549 breast): < 0.0244 µM | TGI (HCT-116 colon): 1.09 µM | TGI (MCF7 breast): 0.153 µM | TGI (DU-145 prostate): < 0.01 µM | TGI (A498 renal): 0.0288 µM | TGI (OVCAR-3 ovarian): > 100 µM | TGI (HT29 colon): < 0.0229 µM | TGI (OVCAR-4 ovarian): < 0.01 µM | TGI (T-47D breast): 0.455 µM | TGI (SK-MEL-5 melanoma): < 0.0414 µM | TGI (HCC-2998 colon): < 0.01 µM | TGI (SF-268 CNS): < 0.01 µM | TGI (KM12 colon): 0.0714 µM | TGI (SN12C renal): 0.0325 µM | TGI (HS 578T breast): 0.057 µM | TGI (RPMI-8226 leukemia): < 0.0255 µM | TGI (SF-295 CNS): < 0.01 µM | TGI (MDA-MB-435): 0.025 µM | TGI (HL-60(TB) leukemia): 0.0162 µM | TGI (LOX IMVI melanoma): 0.0145 µM | TGI (K-562 leukemia): > 100 µM | TGI (COLO 205 colon): 0.0223 µM | TGI (NCI-H23 lung): < 0.01 µM | TGI (UACC-62 melanoma): 0.0101 µM | TGI (HOP-62 NSCLC): 0.0556 µM | TGI (SK-OV-3 ovarian): 1.21 µM | TGI (SW-620 colon): 0.124 µM | TGI (OVCAR-8 ovarian): 0.0236 µM | TGI (ACHN renal): 0.0103 µM

Cc1c2c(OCCCCN3CCN(c4ncccn4)CC3)nn(C)c(=O)c2c(C)n1-c1ccccc1
TGI (MDA-MB-231 breast): 30.7 µM | TGI (SNB-75 CNS): 39.4 µM | TGI (A549 NSCLC): 40.9 µM | TGI (SNB-19 CNS): 33.3 µM | TGI (U251 CNS): 32 µM | TGI (HCT-15 colon): 32.7 µM | TGI (EKVX NSCLC): 36.6 µM | TGI (NCI/ADR-RES ovarian): 46.2 µM | TGI (SF-539 CNS): 32.6 µM | TGI (NCI-H226 lung): 40.8 µM | TGI (NCI-H460 lung): 35.6 µM | TGI (OVCAR-5 ovarian): 37.6 µM | TGI (CCRF-CEM leukemia): > 100 µM | TGI (SK-MEL-2 melanoma): 34.6 µM | TGI (RXF 393 renal): 41.8 µM | TGI (NCI-H522 lung): 38.2 µM | TGI (BT-549 breast): 34.5 µM | TGI (HCT-116 colon): 31.7 µM | TGI (UACC-257 melanoma): 33.5 µM | TGI (MCF7 breast): 31.4 µM | TGI (DU-145 prostate): 35.8 µM | TGI (A498 renal): 30.6 µM | TGI (M14 melanoma): 35.9 µM | TGI (OVCAR-3 ovarian): 41.9 µM | TGI (TK-10 renal): 33.5 µM | TGI (HT29 colon): > 100 µM | TGI (OVCAR-4 ovarian): 39.1 µM | TGI (T-47D breast): 45.8 µM | TGI (SK-MEL-5 melanoma): 26.8 µM | TGI (786-0 renal): 34.7 µM | TGI (UO-31 renal): 30.8 µM | TGI (HCC-2998 colon): 35 µM | TGI (SF-268 CNS): 34.3 µM | TGI (KM12 colon): 43.1 µM | TGI (SN12C renal): 34.5 µM | TGI (HS 578T breast): 67.8 µM | TGI (IGROV1 ovarian): 35 µM | TGI (RPMI-8226 leukemia): 74.4 µM | TGI (SF-295 CNS): 32.4 µM | TGI (MDA-MB-435): 40.5 µM | TGI (HL-60(TB) leukemia): 47.2 µM | TGI (LOX IMVI melanoma): 44.5 µM | TGI (K-562 leukemia): > 100 µM | TGI (COLO 205 colon): 34.8 µM | TGI (NCI-H23 lung): 37 µM | TGI (UACC-62 melanoma): 31 µM | TGI (HOP-62 NSCLC): 57.8 µM | TGI (SK-MEL-28 melanoma): 34.5 µM | TGI (PC-3 prostate): 37.3 µM | TGI (SK-OV-3 ovarian): 35.4 µM | TGI (SW-620 colon): 69.4 µM | TGI (OVCAR-8 ovarian): 61.3 µM | TGI (MALME-3M melanoma): 35.7 µM | TGI (ACHN renal): 31.3 µM | TGI (HOP-92 NSCLC): 31.8 µM | TGI (MOLT-4 leukemia): 84.6 µM | TGI (CAKI-1 renal): 35.3 µM
